Numbers after ± are expanded uncertainties.
Assay: xn = mol fraction of the nth substance listed
Details: 313.15 K, 100 kPa, Liquid; for speed of sound: Frequency=5 MHz, Pulse-echo method; for mass density: Vibrating tube method

OCCCCCO [1,5-pentanediol] + O
Details | mass density [kg/m3] | speed of sound [m/s]
x1 = 0.005 | 991.7 ± 0.52 | –
x1 = 0.0101 | 991.52 ± 1 | –
x1 = 0.0196 | 991.54 ± 1 | –
x1 = 0.0251 | 991.82 ± 1 | –
x1 = 0.0304 | 992.13 ± 1 | –
x1 = 0.05 | 992.81 ± 1 | –
x1 = 0.0769 | 993.24 ± 1 | –
x1 = 0.1002 | 993.63 ± 1.1 | –
x1 = 0.1124 | – | 1653.6 ± 1.2
x1 = 0.1158 | – | 1654.3 ± 1.2
x1 = 0.1193 | – | 1654.9 ± 1.2
x1 = 0.1244 | – | 1655.7 ± 1.2
x1 = 0.1287 | – | 1656.2 ± 1.2
x1 = 0.1321 | – | 1656.6 ± 1.2
x1 = 0.1361 | – | 1656.9 ± 1.2
x1 = 0.1413 | – | 1657.3 ± 1.2
x1 = 0.1438 | 993.61 ± 1.1 | –
x1 = 0.1453 | – | 1657.5 ± 1.2
x1 = 0.1493 | – | 1657.7 ± 1.3
x1 = 0.1538 | – | 1657.8 ± 1.3
x1 = 0.1569 | – | 1657.8 ± 1.3
x1 = 0.1592 | – | 1657.9 ± 1.3
x1 = 0.1624 | – | 1657.9 ± 1.3
x1 = 0.1645 | – | 1657.9 ± 1.3
x1 = 0.1677 | – | 1657.8 ± 1.3
x1 = 0.1703 | – | 1657.8 ± 1.3
x1 = 0.174 | – | 1657.7 ± 1.3
x1 = 0.1785 | – | 1657.6 ± 1.3
x1 = 0.1796 | – | 1657.5 ± 1.3
x1 = 0.1845 | 993.02 ± 1.1 | –
x1 = 0.1854 | – | 1657.3 ± 1.3
x1 = 0.1882 | – | 1657.2 ± 1.3
x1 = 0.1986 | – | 1656.6 ± 1.3
x1 = 0.2089 | – | 1656 ± 1.3
x1 = 0.2219 | – | 1655 ± 1.3
x1 = 0.2336 | – | 1654.1 ± 1.3
x1 = 0.2458 | – | 1653 ± 1.3
x1 = 0.2503 | 991.87 ± 1.2 | –
x1 = 0.2586 | – | 1651.8 ± 1.3
x1 = 0.2742 | – | 1650.3 ± 1.4
x1 = 0.2871 | – | 1649 ± 1.4
x1 = 0.3037 | – | 1647.3 ± 1.4
x1 = 0.3173 | – | 1645.8 ± 1.4
x1 = 0.3466 | – | 1642.6 ± 1.4
x1 = 0.366 | – | 1640.3 ± 1.4
x1 = 0.3864 | – | 1637.9 ± 1.5
x1 = 0.401 | – | 1636.1 ± 1.5
x1 = 0.4198 | – | 1633.7 ± 1.5
x1 = 0.4339 | – | 1631.8 ± 1.5
x1 = 0.4516 | – | 1629.5 ± 1.5
x1 = 0.4639 | – | 1627.8 ± 1.6
x1 = 0.4723 | – | 1626.7 ± 1.6
x1 = 0.4915 | – | 1624 ± 1.6
x1 = 0.5111 | – | 1621.3 ± 1.6
x1 = 0.5315 | – | 1618.4 ± 1.6
x1 = 0.5529 | – | 1615.4 ± 1.7
x1 = 0.5804 | – | 1611.5 ± 1.7
x1 = 0.602 | – | 1608.5 ± 1.7
x1 = 0.6163 | – | 1606.5 ± 1.8
x1 = 0.6349 | – | 1604 ± 1.8
x1 = 0.6533 | – | 1601.5 ± 1.8
x1 = 0.6749 | – | 1598.6 ± 1.8
x1 = 0.6932 | – | 1596.3 ± 1.9
x1 = 0.7095 | – | 1594.2 ± 1.9
x1 = 0.7237 | – | 1592.4 ± 1.9
x1 = 0.7448 | – | 1589.9 ± 1.9
x1 = 0.7666 | – | 1587.3 ± 1.9
x1 = 0.794 | – | 1584.1 ± 2
x1 = 0.8188 | – | 1581.3 ± 2
x1 = 0.8485 | – | 1578 ± 2.1
x1 = 0.875 | – | 1575.1 ± 2.1
x1 = 0.9027 | – | 1572.1 ± 2.2
x1 = 0.9251 | – | 1569.5 ± 2.2
x1 = 0.9471 | – | 1566.9 ± 2.2
x1 = 0.9652 | – | 1564.7 ± 2.2
x1 = 0.9777 | – | 1563.1 ± 2.3
x1 = 0.9877 | – | 1561.8 ± 2.3
x1 = 0.9953 | – | 1560.8 ± 2.3
x1 = 1 | – | 1560.2 ± 2.3
